Data from patent US20070196478A1, “ANTIVIRAL COMPOSITIONS” (priority 1999, published 2007).

Assay: thermal stability of the antiviral compound after melt extrusion (HPLC)
Type: physicochemical
Details: melt extrudate with HPMC 2910 5 mPa·s, 70° C. to […] C.
Text: The melt extrudate was milled and fractions with particle size below 150 μm (condition I in point 6) and between 500 and 850 μm (condition II in point 6) were collected.

SMILES: Cc1cc(C)c(Nc2ccnc(Nc3ccc(C#N)cc3)n2)c(C)c1 [Compound 17 of formula (I-A), 4-[[4-[(2,4,6-trimethylphenyl)amino]-2-pyrimidinyl]amino]benzonitrile]
- degradation of the antiviral compound after melt extrusion: No degradation
